Biological target: T1, human FOXO1 (constitutively active form Thr24Ala, Ser256Ala, Ser319Ala) (Homo sapiens, UniProt Q12778, S256A/S319A/T24A)
T1 construct: expressed in transfected cells; host or cells: HEK293 cells transfected with pcDNA3.1 plasmid
Experiment: FOXO1 inhibitor activity assay: cell-based transcriptional (luciferase) reporter assay in HEK293 cells
Conditions: HEK293 cells transfected with insulin response element firefly luciferase reporter, FOXO1 and Renilla luciferase; 10-point dose response 50 μM to 2.5 nM; 24 hours
Method in brief: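 IC50 and maximal inhibition were fitted by 4-parameter logistic regression on normalized firefly/Renilla luciferase ratios. The 0% reference used RFP in place of FOXO1, and the 100% reference was DMSO-only with all plasmids.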

T1 sequence (Q12778 whole entry T24A/S256A/S319A): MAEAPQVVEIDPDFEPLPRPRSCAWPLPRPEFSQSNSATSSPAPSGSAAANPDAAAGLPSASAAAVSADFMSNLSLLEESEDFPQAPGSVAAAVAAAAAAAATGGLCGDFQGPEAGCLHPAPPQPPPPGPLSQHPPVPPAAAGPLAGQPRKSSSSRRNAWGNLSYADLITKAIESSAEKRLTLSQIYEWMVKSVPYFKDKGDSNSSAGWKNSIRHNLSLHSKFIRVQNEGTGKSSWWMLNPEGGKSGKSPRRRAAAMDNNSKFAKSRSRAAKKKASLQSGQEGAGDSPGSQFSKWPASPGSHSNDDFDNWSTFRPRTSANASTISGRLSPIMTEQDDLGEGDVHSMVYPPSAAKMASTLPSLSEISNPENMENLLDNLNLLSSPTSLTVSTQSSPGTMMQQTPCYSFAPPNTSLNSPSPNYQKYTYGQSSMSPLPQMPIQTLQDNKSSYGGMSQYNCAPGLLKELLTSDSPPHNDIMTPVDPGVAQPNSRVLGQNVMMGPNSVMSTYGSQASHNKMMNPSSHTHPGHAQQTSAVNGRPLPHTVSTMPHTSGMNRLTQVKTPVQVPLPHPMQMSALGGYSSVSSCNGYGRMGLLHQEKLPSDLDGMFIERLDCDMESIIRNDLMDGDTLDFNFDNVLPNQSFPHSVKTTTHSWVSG

Row | IC50 [nM] | Compound
1 | < 100 | COc1ccc(C(=O)Nc2cc(-c3nc4cc(F)ccc4[nH]3)n(C)n2)cc1Cl [Compound A-126, 3-chloro-N-[5-(5-fluoro-1H-benzimidazol-2-yl)-1-methyl-pyrazol-3-yl]-4-methoxy-benzamide]
2 | < 100 | COc1cc(F)c2[nH]c(-c3cc(NC(=O)c4ccc(OC)c(Cl)c4)n[nH]3)nc2c1 [Compound A-127, 3-chloro-N-[5-(7-fluoro-5-methoxy-1H-benzimidazol-2-yl)-1H-pyrazol-3-yl]-4-methoxy-benzamide]
3 | 300 to 1000 | COC1CN(c2ccc(C(=O)Nc3cc(-c4nc5cc(F)ccc5[nH]4)n(C)n3)cn2)C1 [Compound A-128, N-[5-(5-fluoro-1H-benzimidazol-2-yl)-1-methyl-pyrazol-3-yl]-6-(3-methoxyazetidin-1-yl)pyridine-3-carboxamide]
4 | 100 to 300 | COCCOc1ccc(C(=O)Nc2cc(-c3nc4ccccc4[nH]3)[nH]n2)cc1C#N [Compound A-129, N-[5-(1H-benzimidazol-2-yl)-1H-pyrazol-3-yl]-3-cyano-4-(2-methoxyethoxy)benzamide]
5 | 300 to 1000 | O=C(Nc1cc(-c2nc3ccccc3[nH]2)[nH]n1)c1ccc(OCCO)c(F)c1 [Compound A-130, N-[5-(1H-benzimidazol-2-yl)-1H-pyrazol-3-yl]-3-fluoro-4-(2-hydroxyethoxy)benzamide]
6 | 100 to 300 | COC1CN(c2ccc(C(=O)Nc3cc(-c4nc5cccc(F)c5[nH]4)[nH]n3)cn2)C1 [Compound A-131, N-[5-(7-fluoro-1H-benzimidazol-2-yl)-1H-pyrazol-3-yl]-6-(3-methoxy-azetidin-1-yl)pyridine-3-carboxamide]
7 | < 100 | COC1CN(c2ccc(C(=O)Nc3cc(-c4nc5cc(F)ccc5[nH]4)[nH]n3)cn2)C1 [Compound A-132, N-[5-(5-fluoro-1H-benzimidazol-2-yl)-1H-pyrazol-3-yl]-6-(3-methoxy-azetidin-1-yl)pyridine-3-carboxamide]
8 | 100 to 300 | CN(C)C1CCN(c2ccc(C(=O)Nc3cc(-c4nc5cc(F)ccc5[nH]4)n(C)n3)cn2)CC1 [Compound A-133, 6-[4-(dimethylamino)-1-piperidyl]-N-[5-(5-fluoro-1H-benzimidazol-2-yl)-1-methyl-pyrazol-3-yl]pyridine-3-carboxamide]
9 | 100 to 300 | Cn1nc(NC(=O)c2ccc(N3CCC(O)CC3)nc2)cc1-c1nc2cccc(F)c2[nH]1 [Compound A-134]
10 | 100 to 300 | Cn1nc(NC(=O)c2ccc(N3CCOCC3)nc2)cc1-c1nc2cccc(F)c2[nH]1 [Compound A-135, N-[5-(4-fluoro-1H-benzimidazol-2-yl)-1-methyl-pyrazol-3-yl]-6-morpholino-pyridine-3-carboxamide]
11 | 100 to 300 | Cn1nc(NC(=O)c2ccc(N3CCC(CO)CC3)nc2)cc1-c1nc2cccc(F)c2[nH]1 [Compound A-136, N-[5-(4-fluoro-1H-benzimidazol-2-yl)-1-methyl-pyrazol-3-yl]-6-[4-(hydroxymethyl)-1-piperidyl]pyridine-3-carboxamide]
12 | 300 to 1000 | COC1CN(c2ccc(C(=O)Nc3cc(-c4nc5cccc(F)c5[nH]4)n(C)n3)cn2)C1 [Compound A-137, N-[5-(4-fluoro-1H-benzimidazol-2-yl)-1-methyl-pyrazol-3-yl]-6-(3-methoxyazetidin-1-yl)pyridine-3-carboxamide]
13 | > 1000 | O=C(NCc1ccccc1)Nc1cc(-c2nc3ccccc3[nH]2)[nH]n1 [Compound A-138, 1-[5-(1H-benzimidazol-2-yl)-1H-pyrazol-3-yl]-3-benzyl-urea]
14 | 100 to 300 | CN(C)C1CCN(c2ccc(C(=O)Nc3cc(-c4nc5cccc(F)c5[nH]4)n(C)n3)cn2)CC1 [Compound A-139, 6-[4-(dimethylamino)-1-piperidyl]-N-[5-(4-fluoro-1H-benzimidazol-2-yl)-1-methyl-pyrazol-3-yl]pyridine-3-carboxamide]
15 | > 1000 | O=C(Nc1ccccc1)Nc1cc(-c2nc3ccccc3[nH]2)[nH]n1 [Compound A-140, 1-[5-(1H-benzimidazol-2-yl)-1H-pyrazol-3-yl]-3-phenyl-urea]
16 | 100 to 300 | O=C(Nc1cc(-c2nc3cc(F)ccc3[nH]2)[nH]n1)c1ccc(OCCO)c(Cl)c1 [Compound A-141, 3-chloro-N-[5-(5-fluoro-1H-benzimidazol-2-yl)-1H-pyrazol-3-yl]-4-(2-hydroxyethoxy)benzamide]
17 | < 100 | COCCN1CCN(c2ccc(C(=O)Nc3cc(-c4nc5ccccc5[nH]4)[nH]n3)cn2)CC1 [Compound A-142, N-[5-(1H-benzimidazol-2-yl)-1H-pyrazol-3-yl]-6-[4-(2-methoxyethyl)-piperazin-1-yl]pyridine-3-carboxamide]
18 | 100 to 300 | O=C(Nc1cc(-c2nc3ccccc3[nH]2)[nH]n1)c1ccc(N2CCN(CCO)CC2)nc1 [Compound A-143, N-[5-(1H-benzimidazol-2-yl)-1H-pyrazol-3-yl]-6-[4-(2-hydroxyethyl)-piperazin-1-yl]pyridine-3-carboxamide]
19 | > 1000 | N#Cc1cc(C(=O)Nc2cc(-c3nc4ccccc4[nH]3)[nH]n2)ccc1OCCO [Compound A-144, N-[5-(1H-benzimidazol-2-yl)-1H-pyrazol-3-yl]-3-cyano-4-(2-hydroxy-ethoxy)benzamide]

Row | IC50 [nM] | Compound
20 | > 1000 | CCOC(=O)[C@@H]1CCCN1c1ccc(C(=O)Nc2cc(-c3nc4cc(F)ccc4[nH]3)n(C)n2)cn1 [Compound A-145, ethyl (25)-1-[5-[[5-(5-fluoro-1H-benzimidazol-2-yl)-1-methyl-pyrazol-3-yl]carbamoyl]-2-pyridyl]pyrrolidine-2-carboxylate]
21 | > 1000 | CCOC(=O)[C@H]1CCCN1c1ccc(C(=O)Nc2cc(-c3nc4cc(F)ccc4[nH]3)n(C)n2)cn1 [Compound A-146, ethyl (2R)-1-[5-[[5-(5-fluoro-1H-benzimidazol-2-yl)-1-methyl-pyrazol-3-yl]carbamoyl]-2-pyridyl]pyrrolidine-2-carboxylate]
22 | > 1000 | CCOC(=O)[C@@H]1CCCN1c1ccc(C(=O)Nc2cc(-c3nc4cccc(F)c4[nH]3)n(C)n2)cn1 [Compound A-147, ethyl (2S)-1-[5-[[5-(4-fluoro-1H-benzimidazol-2-yl)-1-methyl-pyrazol-3-yl]carbamoyl]-2-pyridyl]pyrrolidine-2-carboxylate]
23 | 100 to 300 | Cn1nc(NC(=O)c2ccc(N3CCOCC3)nc2)cc1-c1nc2cc(F)ccc2[nH]1 [Compound A-148, N-[5-(5-fluoro-1H-benzimidazol-2-yl)-1-methyl-pyrazol-3-yl]-6-morpholino-pyridine-3-carboxamide]
24 | 100 to 300 | COCCN1CCN(c2ccc(C(=O)Nc3cc(-c4nc5cc(F)ccc5[nH]4)n(C)n3)cn2)CC1 [Compound A-149]
25 | 100 to 300 | Cn1nc(NC(=O)c2ccc(N3CCN(CCO)CC3)nc2)cc1-c1nc2cc(F)ccc2[nH]1 [Compound A-150]
26 | > 1000 | Cn1nc(NC(=O)c2ccc(N3CCC[C@H]3C(=O)O)nc2)cc1-c1nc2cc(F)ccc2[nH]1 [Compound A-151, (2S)-1-[5-[[5-(5-fluoro-1H-benzimidazol-2-yl)-1-methyl-pyrazol-3-yl]carbamoyl]-2-pyridyl]pyrrolidine-2-carboxylic acid]
27 | < 100 | O=C(Nc1cc(-c2nc3ccccc3[nH]2)[nH]n1)c1ccc(OCCO)c(C(F)(F)F)c1 [Compound A-152, N-[5-(1H-benzimidazol-2-yl)-1H-pyrazol-3-yl]-4-(2-hydroxyethoxy)-3-(trifluoromethyl)benzamide]
28 | 100 to 300 | COC1CCN(c2ccc(C(=O)Nc3cc(-c4nc5cc(F)ccc5[nH]4)n(C)n3)cn2)CC1 [Compound A-153, N-[5-(5-fluoro-1H-benzimidazol-2-yl)-1-methyl-pyrazol-3-yl]-6-(4-methoxy-1-piperidyl)pyridine-3-carboxamide]
29 | 100 to 300 | COCCN1CCN(c2ccc(C(=O)Nc3cc(-c4nc5cccc(F)c5[nH]4)n(C)n3)cn2)CC1 [Compound A-154]
30 | > 1000 | Cn1nc(NC(=O)c2ccc(N3CCC[C@H]3C(=O)O)nc2)cc1-c1nc2cccc(F)c2[nH]1 [Compound A-155, (2S)-1-[5-[[5-(7-fluoro-1H-benzimidazol-2-yl)-1-methyl-pyrazol-3-yl]carbamoyl]-2-pyridyl]pyrrolidine-2-carboxylic acid]
31 | > 1000 | O=C(O)CN1CCN(c2ccc(C(=O)Nc3cc(-c4nc5ccccc5[nH]4)[nH]n3)cn2)CC1 [Compound A-156, 2-[4-[5-[[5-(1H-benzimidazol-2-yl)-1H-pyrazol-3-yl]carbamoyl]-2-pyridyl]piperazin-1-yl]acetic acid]
32 | 100 to 300 | COC1CCN(c2ccc(C(=O)Nc3cc(-c4nc5cccc(F)c5[nH]4)n(C)n3)cn2)CC1 [Compound A-157]
33 | 100 to 300 | Cn1nc(NC(=O)c2ccc(N3CCN(CCO)CC3)nc2)cc1-c1nc2cccc(F)c2[nH]1 [Compound A-158]
34 | < 100 | COC1CCN(c2ccc(C(=O)Nc3cc(-c4nc5ccccc5[nH]4)[nH]n3)cn2)CC1 [Compound A-159, N-[5-(1H-benzimidazol-2-yl)-1H-pyrazol-3-yl]-6-(4-methoxy-1-piperidyl)-pyridine-3-carboxamide]
35 | 300 to 1000 | Cn1nc(NC(=O)c2ccc(N3CCN(C4COC4)CC3)nc2)cc1-c1nc2cc(F)ccc2[nH]1 [Compound A-160]
36 | 100 to 300 | COc1ccc2nc(-c3cc(NC(=O)c4ccc(OC)c(Cl)c4)n[nH]3)cn2c1 [Compound A-161, 3-chloro-4-methoxy-N-[5-(6-methoxyimidazo[1,2-a]pyridin-2-yl)-1H-pyrazol-3-yl]benzamide]
37 | > 1000 | COc1ccn2cc(-c3cc(NC(=O)c4ccc(OC)c(Cl)c4)n[nH]3)nc2c1 [Compound A-162, 3-chloro-4-methoxy-N-[5-(7-methoxyimidazo[1,2-a]pyridin-2-yl)-1H-pyrazol-3-yl]benzamide]
38 | 300 to 1000 | COc1ccc(C(=O)Nc2cc(-c3cn4ccc(C)cc4n3)[nH]n2)cc1Cl [Compound A-163, 3-chloro-4-methoxy-N-[5-(7-methylimidazo[1,2-a]pyridin-2-yl)-1H-pyrazol-3-yl]benzamide]

From patent US20230416228A1 (Forkhead Biotherapeutics, Inc., priority 2020, published 2023)
